Assay results from PubChem BioAssay AID687031 (Broad Institute, 2013).

System: BHK-21 DENV2 CPE protection, ATP luminescence, 5 d
Assay: antiviral rescue of DENV2-infected BHK-21 cells – cell-based, ATP luminescence, cherry-pick, dose response (AID 687031)

Compound | AC30 [µM]
CS(=O)(=O)N1C[C@@H]2N[C@H](C1)[C@@H]2c1ccc(-c2ccccc2)cc1 | 5.51
C[C@H](CO)N1C[C@H](C)[C@H](CN(C)C(=O)Nc2ccc(-c3ccccc3)cc2)OCc2ccccc2-c2c(n(C)c3ccccc23)C1=O | 17.7
C[C@H](NC(=O)[C@H]1N[C@H]2c3ccc(-c4cccnc4)c(=O)n3C[C@H]2[C@@H]1CO)c1ccccc1 | 12.5
Cn1cnc(S(=O)(=O)N[C@@H]2C=C[C@H](CC(=O)N3CCN(c4ccccc4)CC3)O[C@@H]2CO)c1 | 17
Nc1ncccc1C(=O)OCC(=O)N1CCN(S(=O)(=O)c2ccc(Cl)cc2)CC1 | 19
CCc1c(C2(O)CCCCC2)[nH]c2c(C(=O)OC)cc(Cl)cc12 | 12.3
COc1ccc(CN2CCNC(=O)C2CC(=O)NCC2CCOCC2)c(C)c1C (centres undefined) | 15.7
Cc1noc(C)c1NC(=O)Nc1ccc2c(c1)C(=O)N([C@@H](C)CO)C[C@@H](C)[C@@H](CN(C)S(C)(=O)=O)OCCCC[C@@H](C)O2 | 18.6
Cc1cc(F)cc(-c2cc(C(=O)NCC3CCCCC3)[nH]n2)c1 | 10
C[C@@H]1CCCCO[C@H](CN(C)S(=O)(=O)c2ccccc2)[C@@H](C)CN([C@@H](C)CO)C(=O)c2cc(NC(=O)c3ccncc3)ccc2O1 | 17.6
O=C(C1CCOCC1)N1C[C@H]2[C@@H](c3ccccc31)[C@@H](CO)N2C(=O)c1ccccc1 | 18.8
Cc1ccccc1S(=O)(=O)N1CC[C@@H]2[C@H](CO)Nc3ccc(-c4cccc(C#N)c4)cc3[C@@H]21 | 15.9
Cc1cccc([C@@H]2[C@@H]3C(=O)N(C)C(=O)[C@@H]3[C@@H]3C(=O)Nc4ccccc4C(=O)N23)c1 | 18.7
COC(=O)[C@@H]1[C@@H](CO)[C@@H]2Cn3c(ccc(C4=CCCC4)c3=O)[C@H]1N2Cc1ccccn1 | 17.2
O=S(=O)(c1ccc2c(c1)OCCO2)N1CCCN(S(=O)(=O)c2c(F)cccc2F)CC1 | 17.5
Cc1cc(F)ccc1C(O)c1ncc(-c2ccccc2C(F)(F)F)[nH]1 (centres undefined) | 18.4
CC1CCN(C(=O)COC(=O)CNC(=O)c2ccccc2F)CC1 | 19.4
COCCNC(=O)CCC1CCN(C/C=C/c2ccccc2OC)CC1 | 19.3
CC1CCN(CCOc2ccc(OCc3ccccc3)cc2)CC1 | 11.3
Cc1c(C(=O)OC(C)C)sc(N)c1C(=O)OC(C)C | 18.6
CC1CCCC(NC(=O)COC(=O)c2ccccc2Sc2ccccc2C#N)C1C (centres undefined) | 12.7
CCOC(=O)N1CCN(C(C(=O)NC2CCCC2)C(C)C)CC1 (centres undefined) | 9.37
COC(=O)[C@H]1CN(C(=O)c2ccccc2)C(=O)N1 | 5.13
CCOc1ccc2[nH]cc(S(=O)(=O)c3ccc(C)cc3)c(=O)c2c1 | 13
CCN(CC)CC(=O)N1CCCC(N2CCN(c3cccc(C(F)(F)F)c3)CC2)C1 (centres undefined) | 19.1

Compound | AC30 [µM]
CCN(CC(=O)NCC(=O)Nc1cccc(C)c1C)Cc1ccccc1 | 19.3
CC(C)[C@H](NC(=O)N1C[C@H]2C[C@@H](C1)c1cccc(=O)n1C2)C(=O)Nc1ccccc1F | 16.2
CN(C)CC(=O)Nc1ccc2c(c1)[C@@H]1C[C@@H](CC(=O)NC3CCCCC3)O[C@H](CO)[C@@H]1O2 | 8.06
COc1cccc(-c2ccc(C3[C@@H]4CN(S(=O)(=O)c5cn(C)cn5)C[C@H]3N4)cc2)c1 (some centres undefined) | 7.87
COc1ccc(C(N)c2csc(Nc3cc(Oc4ccccc4)ncn3)n2)cc1 (centres undefined) | 17.4
CC1CCCN(C(=O)c2ccc(S(=O)(=O)Nc3ccccc3Cl)cc2)C1 (centres undefined) | 13.5
O=C(O)C1C2C=CC(C2)C1C(=O)NCc1ccccc1 (centres undefined) | 15.5
CCNS(=O)(=O)c1ccc(Br)c(C(=O)OC(C)C(=O)NCC2CCCCC2)c1 (centres undefined) | 2.25
COC(=O)N1CCCCC1c1cc(C(=O)Nc2ccc(OC)cc2C)no1 (centres undefined) | 13
OC(CSc1nnnn1-c1ccccc1)Cn1c2ccccc2c2ccccc21 (centres undefined) | 18.8
c1ccc(C2CC2)c(OCC2=NCCN2)c1 | 9.54
FC(F)(F)c1cccnc1Oc1ccc(C2=NCCS2)cc1 | 8.01
Cc1cc(OC(C)C(=O)NC2CC(C)(C)NC(C)(C)C2)c2c(C)c(C)c(=O)oc2c1 (centres undefined) | 2.89
O=C1[C@@H](Oc2ccccc2)[C@@H](c2ccncc2)N1c1ccccc1 | 14.2
NC(=O)c1ccsc1NC(=O)COC(=O)[C@@H]1CCCN1C(=O)c1cccs1 | 11
O=C(c1ccccc1)N1CC[C@@H]2[C@H](CO)Nc3ccc(C#Cc4cccc(F)c4)cc3[C@@H]21 | 3.21
CC(=O)N1CCN(C(=O)COC(=O)COc2c(C)cc(C)cc2C)CC1 | 11.7
Oc1cccc2nc3ccccc3nc12 | 14.4
Cc1ccc(C(=O)NCC(=O)NCC(c2cccs2)N2CCOCC2)cc1C (centres undefined) | 14.8
CSc1ccccc1OCc1cc(C(=O)N2CCc3[nH]cnc3C2c2ccccn2)no1 (centres undefined) | 9.97
Cc1cc(C)cc(NC(=O)Cn2nnc(C(=O)NCc3cccs3)c2N)c1 | 13.3
C[C@H](NC(=O)CCCOc1ccc(Cl)cc1Cl)c1nnc2ccccn12 | 16.2
CCCNC(=O)C[C@H]1CC[C@@H]2[C@H](COC[C@@H](O)CN2C(=O)c2ccccn2)O1 | 17.3
CCC[C@@H]1CCCO[C@@](C(=O)NCc2ccccn2)(C(F)(F)F)C1 | 10
